Measurements: patent publication US20170112831A1, “USE OF CCR1 ANTAGONISTS AS A TREATMENT FOR TUMORS OF THE CENTRAL NERVOUS SYSTEM” (priority 2015, published 2017)

System: GL261 murine glioma cells
Assay: Microglia stimulated glioma invasion, Matrigel-coated invasion chamber coculture assay
Type: cell-based
Conditions: 250 nM CCR1 antagonist, 48 hours, GL261 cocultured with microglia, vs DMSO; FIG. 1
Method: Microglial stimulation of glioma invasion. CCR1 antagonists were screened using the glioblastoma cells and microglia invasion assay described below.
GL261 murine glioma cells expressing the fluorescent protein m-Cherry and microglial (MG) cells stained with cell tracker green (CMFDA; Invitrogen) were cocultured on Matrigel-coated invasion chambers (Becton, Dickinson and Company). Cells were plated at a density per invasion chamber of 100,000 labeled GL261 cells with an additional 150,000 unlabelled GL261 cells or with 50,000 unlabelled GL261 and 50,000 MG cells in M-SFM with 0.3% BSA. Invasion chambers were incubated for 48 hours in the presence of DMSO, or 250 nM of the CCR1 antagonist, after which they were fixed in 3.7% paraformaldehyde in PBS. Imaging of the cells on the bottom of the filter was performed using an AMG EVOS epifluorescent microscope. The extent of invasion was quantified by counting the number of glioblastoma cells (green) that were on the underside of the filter in at least seven 10× fields. The final number of invasive cells in the control was multiplied by 0.75 to normalize.

## Cc1nnc([C@H]2CCCN2C(=O)Nc2ccc(C(F)(F)F)cc2)n1Cc1ccc(Cl)cc1 [Compound #1]
  reduction in the number of invasive glioma cells: greater than 50%
